Measured values from ChEMBL document CHEMBL3885881, “DrugMatrix”.

Organism: Rattus norvegicus
Test: DrugMatrix - Regimen: Daily Repeat
Type: toxicity, organism-based, Sprague-Dawley
Set-up: regimen Daily Repeat, gender Male, age 6-8 weeks
Conditions: in vivo, po, route oral GAVAGE, vehicle 100 % WATER; for ABSOLUTE BASOPHIL / ABSOLUTE EOSINOPHIL / ABSOLUTE LYMPHOCYTE / ABSOLUTE MONOCYTE / ABSOLUTE SEGMENTED NEUTROPHIL / BASOPHIL / EOSINOPHIL / ERYTHROCYTE COUNT / HEMATOCRIT / HEMOGLOBIN / LEUKOCYTE COUNT / LYMPHOCYTE / MEAN CORPUSCULAR HEMOGLOBIN / MEAN CORPUSCULAR HEMOGLOBIN CONCENTRATION / MEAN CORPUSCULAR VOLUME / MONOCYTE / NEUTROPHIL / NUCLEATED RED BLOOD CELLS / PLATELET COUNT: tissue Blood; for ALANINE AMINOTRANSFERASE / ALBUMIN / ALKALINE PHOSPHATASE / ASPARTATE AMINOTRANSFERASE / BLOOD UREA NITROGEN / CARBON DIOXIDE / CHLORIDE / CHOLESTEROL / CREATINE PHOSPHOKINASE / CREATININE / GLUCOSE / LACTATE DEHYDROGENASE / LIPASE / PHOSPHORUS / POTASSIUM / SODIUM / TOTAL BILIRUBIN / TOTAL PROTEIN / URIC ACID: tissue Plasma
[1] = 0 mg/kg, 72 h, dose level Control, time 3 day
[2] = 0 mg/kg, 120 h, dose level Control, time 5 day
[3] = 25 mg/kg, 72 h, dose level Low, time 3 day

## c1ccc([C@H]2CN3CCSC3=N2)cc1 [LEVAMISOLE]
[1]
  ABSOLUTE BASOPHIL: 0 CELLS/uL
  ABSOLUTE EOSINOPHIL: 20.17 CELLS/uL
  ABSOLUTE LYMPHOCYTE: 12371.67 CELLS/uL
  ABSOLUTE MONOCYTE: 166 CELLS/uL
  ABSOLUTE SEGMENTED NEUTROPHIL: 1292.17 CELLS/uL
  BASOPHIL: 0%
  EOSINOPHIL: 0.17%
  ERYTHROCYTE COUNT: 5.46 x10E6/uL
  HEMATOCRIT: 34.38%
  HEMOGLOBIN: 13.32 G/DL
  LEUKOCYTE COUNT: 13.85 x10E3/uL
  LYMPHOCYTE: 88.5%
  MEAN CORPUSCULAR HEMOGLOBIN: 24.42 pg
  MEAN CORPUSCULAR HEMOGLOBIN CONCENTRATION: 38.7 G/DL
  MEAN CORPUSCULAR VOLUME: 63.07 fL
  MONOCYTE: 1.17%
  NEUTROPHIL: 10.17%
  NUCLEATED RED BLOOD CELLS: 0.17 /100WBC
  PLATELET COUNT: 1193.5 x10E3/uL
  ALANINE AMINOTRANSFERASE: 54.5 u/L
  ALBUMIN: 4.02 G/DL
  ALKALINE PHOSPHATASE: 346.5 u/L
  ASPARTATE AMINOTRANSFERASE: 103.17 u/L
  BLOOD UREA NITROGEN: 16.5 mg/dL
  CARBON DIOXIDE: 29.83 mmol/L
  CHLORIDE: 99.5 MEQ/L
  CHOLESTEROL: 72.5 mg/dL
  CREATINE PHOSPHOKINASE: 532.5 u/L
  CREATININE: 0.18 mg/dL
  GLUCOSE: 168.5 mg/dL
  LACTATE DEHYDROGENASE: 536.5 u/L
  LIPASE: 11.17 u/L
  PHOSPHORUS: 11.48 mg/dL
  POTASSIUM: 5.95 MEQ/L
  SODIUM: 140.5 MEQ/L
  TOTAL BILIRUBIN: 0.18 mg/dL
  TOTAL PROTEIN: 5.77 G/DL
  URIC ACID: 1.42 mg/dL
[2]
  ABSOLUTE BASOPHIL: 0 CELLS/uL
  ABSOLUTE EOSINOPHIL: 22.83 CELLS/uL
  ABSOLUTE LYMPHOCYTE: 12202.83 CELLS/uL
  ABSOLUTE MONOCYTE: 158 CELLS/uL
  ABSOLUTE SEGMENTED NEUTROPHIL: 1283 CELLS/uL
  BASOPHIL: 0%
  EOSINOPHIL: 0.17%
  ERYTHROCYTE COUNT: 5.88 x10E6/uL
  HEMATOCRIT: 36.62%
  HEMOGLOBIN: 14.07 G/DL
  LEUKOCYTE COUNT: 13.67 x10E3/uL
  LYMPHOCYTE: 89.5%
  MEAN CORPUSCULAR HEMOGLOBIN: 23.95 pg
  MEAN CORPUSCULAR HEMOGLOBIN CONCENTRATION: 38.43 G/DL
  MEAN CORPUSCULAR VOLUME: 62.28 fL
  MONOCYTE: 1.17%
  NEUTROPHIL: 9.17%
  NUCLEATED RED BLOOD CELLS: 0.17 /100WBC
  PLATELET COUNT: 1198 x10E3/uL
  ALANINE AMINOTRANSFERASE: 51 u/L
  ALBUMIN: 4.3 G/DL
  ALKALINE PHOSPHATASE: 343 u/L
  ASPARTATE AMINOTRANSFERASE: 89.83 u/L
  BLOOD UREA NITROGEN: 17.67 mg/dL
  CARBON DIOXIDE: 27.17 mmol/L
  CHLORIDE: 98.33 MEQ/L
  CHOLESTEROL: 82.5 mg/dL
  CREATINE PHOSPHOKINASE: 533.33 u/L
  CREATININE: 0.18 mg/dL
  GLUCOSE: 152.67 mg/dL
  LACTATE DEHYDROGENASE: 220.33 u/L
  LIPASE: 11.5 u/L
  PHOSPHORUS: 11.25 mg/dL
  POTASSIUM: 6.29 MEQ/L
  SODIUM: 140.53 MEQ/L
  TOTAL BILIRUBIN: 0.22 mg/dL
  TOTAL PROTEIN: 6.12 G/DL
  URIC ACID: 1.42 mg/dL
[3]
  ABSOLUTE BASOPHIL: 0 CELLS/uL
  ABSOLUTE EOSINOPHIL: 0 CELLS/uL
  ABSOLUTE LYMPHOCYTE: 9283.33 CELLS/uL
  ABSOLUTE MONOCYTE: 29.33 CELLS/uL
  ABSOLUTE SEGMENTED NEUTROPHIL: 1254 CELLS/uL
  BASOPHIL: 0%
  EOSINOPHIL: 0%
  ERYTHROCYTE COUNT: 5.36 x10E6/uL
  HEMATOCRIT: 32.73%
  HEMOGLOBIN: 13 G/DL
  LEUKOCYTE COUNT: 10.57 x10E3/uL
  LYMPHOCYTE: 87.67%
  MEAN CORPUSCULAR HEMOGLOBIN: 24.3 pg
  MEAN CORPUSCULAR HEMOGLOBIN CONCENTRATION: 39.73 G/DL
  MEAN CORPUSCULAR VOLUME: 61.17 fL
  MONOCYTE: 0.33%
  NEUTROPHIL: 12%
  NUCLEATED RED BLOOD CELLS: 0 /100WBC
  PLATELET COUNT: 1056.33 x10E3/uL
  ALANINE AMINOTRANSFERASE: 64.33 u/L
  ALBUMIN: 3.87 G/DL
  ALKALINE PHOSPHATASE: 326.33 u/L
  ASPARTATE AMINOTRANSFERASE: 98.67 u/L
  BLOOD UREA NITROGEN: 14.33 mg/dL
  CARBON DIOXIDE: 30 mmol/L
  CHLORIDE: 99 MEQ/L
  CHOLESTEROL: 78.33 mg/dL
  CREATINE PHOSPHOKINASE: 446 u/L
  CREATININE: 0.19 mg/dL
  GLUCOSE: 155 mg/dL
  LACTATE DEHYDROGENASE: 214 u/L
  LIPASE: 10.67 u/L
  PHOSPHORUS: 11.53 mg/dL
  POTASSIUM: 5.92 MEQ/L
  SODIUM: 142 MEQ/L
  TOTAL BILIRUBIN: 0.17 mg/dL
  TOTAL PROTEIN: 5.57 G/DL
